Measured values taken from PMC10901950, “Neuroprotective and Anti-inflammatory Effects of Rubiscolin-6 Analogs with Proline Surrogates in Position 2” (Neurochemical Research, 2023).
Numbered stars: 1 amine (or outer) side, 2 acyl side, 3 side chain; on linkers, the order of the positions; unused ones are H or OH. Square brackets hold non-standard residues; d marks the D form. Ends that are not written are not given here. Peptide text beside a SMILES is read from it. Nip(3R) = O=C([C@@H]1CCCN([*:1])C1)[*:2]; Dmt = Cc1cc(O)cc(C)c1C[C@H](N)C(=O)O; Inp = O=C(O)C1CCNCC1

Key:
SH-SY5Y cells [1] = assay: Intracellular ROS production in 6-OHDA-treated SH-SY5Y cells; type: cell-based, human; conditions: 6-OHDA 100 µM; for decrease of ROS production stimulated by 6-OHDA: peptide at both 1 and 10 µM
Method: The detection of ROS generated in injured cells was evaluated using the 5(6)-carboxy-2ʹ,7ʹ-dichlorofluorescein diacetate (carboxy-H2DCFDA) reagent (Invitrogen, Bleiswijk, Netherlands). After incubation, cells were washed with ice-cold Phosphate-Buffer Saline (PBS). Then, the carboxyl-H2DCFDA (100 µL, 20 µM) reagent was added and incubated for 1 h at 37 °C. Finally, the fluorescence intensity was measured at wavelengths of […], and ROS levels were presented in percentage of control (non-treated cells).

µ-opioid receptor = µ-opioid receptor (Homo sapiens, UniProt P35372); assay: Opioid receptor binding assay, [3H]DAMGO competition; parameters: purchased; host or cells: CHO cells (membranes); conditions: CHO cell membranes, 0.5 nM [3H]DAMGO, 25 °C, 120 min; mean ± SEM of four experiments in duplicate; read-out: Ki MOR
Method: (§1) The opioid receptor binding assays were performed using the modified method described elsewhere. Briefly, commercial membranes of Chinese Hamster Ovary (CHO) cells transfected with human opioid receptors were used. The binding affinities for µ-, δ- and κ-opioid receptors were determined by radioligand competition analysis using [^3H]DAMGO, [^3H]deltorphin-2, and [^3H]U-69593, respectively. Membranes were incubated at 25 °C for 120 min with appropriate concentrations of a tested peptide in the presence of 0.5 nM radioligand in a total volume of 0.5 mL of 50 mM Tris/HCl (pH 7.4) containing bovine serum albumin (BSA) (1 mg/mL), bacitracin (50 µg/mL), bestatin (30 µM), and captopril (10 µM). Non-specific binding was determined in the presence of 1 µM naloxone. Incubations were terminated by the rapid filtration through the GF/B Whatman (Brentford, UK) glass fibre strips (pre-soaked for 2 h in 0.5% (v/v) […]) using Millipore Sampling Manifold (Billerica, MA, USA). The filters were washed thrice with 4 mL of ice-cold Tris buffer solution. Packard Tri-Carb 2100 TR liquid scintillation counter (Ramsey, MN, USA) was used to measure the bound radioactivity after overnight extraction of the filters in 4 mL of a Perkin Elmer Ultima Gold scintillation fluid (Wellesley, MA, USA). The data were analyzed by a nonlinear least square regression analysis computer program Graph Pad PRISM 6.0 (Graph Pad Software Inc., San Diego, CA, USA). The values of the inhibitory constants (Ki) were calculated according to the equation of Cheng and Prusoff.
(§2) The ability of R-6 and its new analogs to bind to µ-, δ- and κ-opioid receptors was determined by competitive binding assays against [^3H]DAMGO, [^3H][Ile^5,6]deltorphin-2 and [^3H]U-69593, respectively, using membranes of CHO cells transfected with opioid receptors and are summarized in Table 2.

κ-opioid receptor = biological target: T1, κ-opioid receptor (Homo sapiens, UniProt P41145); assay: Opioid receptor binding assay, [3H]U-69593 competition; conditions: CHO cell membranes, 0.5 nM [3H]U-69593, 25 °C, 120 min; mean ± SEM of four experiments in duplicate; read-out: Ki KOR
T1 construct: purchased; host or cells: CHO cells (membranes)
Method: as §1, §2

δ-opioid receptor = δ-opioid receptor (Homo sapiens, UniProt P41143); assay: Opioid receptor binding assay, [3H][Ile5,6]deltorphin-2 competition; parameters: purchased; host or cells: CHO cells (membranes); conditions: CHO cell membranes, 0.5 nM [3H][Ile5,6]deltorphin-2, 25 °C, 120 min; mean ± SEM of four experiments in duplicate; read-out: Ki DOR
Method: as §1, §2

SH-SY5Y cells [2] = assay: Neuroprotection in 6-OHDA-treated SH-SY5Y cells (MTT); type: cell-based, human; conditions: for neuroprotection after pre-treatment with LY 294002: LY 294002 (PI3-K inhibitor) 20 µM; for neuroprotection after pre-treatment with LY 294002 / neuroprotective effect after pre-treatment with PD 98059: 30 min before peptide and 6-OHDA 100 µM; for neuroprotective effect after pre-treatment with PD 98059: PD 98059 (MEK 1 inhibitor) 50 µM; for peptide neuroprotection with opioid receptor antagonists: β-FNA 10 µM or NLT 10 µM 30 min before peptide (1 and/or 10 µM) and 6-OHDA 100 µM, 24 h
Method: The neuroprotective experiments were performed in an in vitro model of a human neuroblastoma cell line (SH-SY5Y) obtained from the German Collection of Microorganisms and Cell Cultures GmbH (DSMZ) Bank (ACC 209). Cells were cultured in Dulbecco’s Modified Eagle’s Medium: Nutrient Mixture F12 (DMEM:F12) supplemented with 1% antibiotic/antimycotic (Amphotericin B, Penicillin and Streptomycin) (Biowest, Nuaillé, France) and 10% (v/v) Fetal Bovine Serum (FBS) (Biowest, Riverside, MO, USA). The anti-inflammatory experiments were performed in an in vitro model of mouse macrophage-like RAW 264.7 cells, purchased from American Type Culture Collection (ATCC, Manassas, VA, USA). Cells were maintained in DMEM medium (Gibco™, Grand Island, NY) and supplemented with 10% bovine calf serum (BCS) (Gibco™, Grand Island, NY) and 1% penicillin–streptomycin (Sigma-Aldrich, St. Louis, MO, USA). Cell cultures were kept at 37 °C in 5% CO2/humidified air.
Cells were incubated with peptides (0.1–10 µM) for 24 h to assess their cytotoxic activity. In the neuroprotective model, SH-SY5Y cells were exposed to 6-OHDA (100 µM) in the absence/presence of peptide at non-toxic concentrations (0.1–10 µM). When needed, a 30 min pre-incubation step with β-funaltrexamine (β-FNA, µ-opioid receptor antagonist, 10 µM), naltrindole (NLT, δ-opioid receptor antagonist, 10 µM), 2’-amino-3’-methoxyflavone (PD 98059, MAPK kinase 1 (MEK 1) inhibitor, 50 µM) or 2-(4-morpholinyl)-8-phenyl-4H-1-benzopyran-4-one (LY 294002, PI3-K inhibitor, 20 µM). Stimulation was terminated by aspiration of the medium and adding 100 µL MTT (1.2 mM) per well. Cells were incubated for 1 h at 37 °C. After this time, MTT was removed, and 100 µL DMSO was added. The resulting absorbance was read in a microplate reader (Biotek, Epoch/2 microplate reader, Winooski, VT, USA) at 570 nm.
Cell metabolic activity (cytotoxicity) was calculated as the percentage of the value obtained for cells incubated with compounds compared to control cells treated with the medium.

[3] = test system: LPS-stimulated RAW 264.7 cells; assay: Lipid peroxidation in LPS-stimulated RAW 264.7 cells (DPPP probe); type: cell-based, mouse; conditions: 24 h; for decrease of membrane lipids' oxidation: lowest concentration used (0.1 µM)
Method: The level of lipid peroxidation was evaluated after RAW 264.7 cells incubation with peptides for 24 h. Then, the cells were loaded with 50 µM diphenyl-1-pyrenylphosphine (DPPP) probe for 15 min, and fluorescence was read at 360 nm excitation and 460 nm emission wavelengths.

With `Cc1cc(O)cc(C)c1C[C@H](N)C(=O)N1CCC[C@H]1C(=O)N[C@@H](CC(C)C)C(=O)N[C@@H](CC(=O)O)C(=O)N[C@@H](CC(C)C)C(=O)N[C@@H](Cc1ccccc1)C(=O)O` [analog 1, Dmt-Pro-Leu-Asp-Leu-Phe-OH] (H-[Dmt]PLDLF-OH) the “effect on ROS production” value (SH-SY5Y cells [1]; peptide 10 µM) was “couldn’t decrease”, the Ki (µ-opioid receptor) was 599 ± 84.5 nM and the Ki (κ-opioid receptor) was greater than 1000 nM. The Ki (δ-opioid receptor) was 91.7 ± 29.7 nM, the “neuroprotection after pre-treatment with LY 294002” value (“neuroprotection after pre-treatment” below) (SH-SY5Y cells [2]) was “significantly weakened” and the “neuroprotective effect after pre-treatment with PD 98059” value (“neuroprotective effect” for short) (SH-SY5Y cells [2]) was “didn’t inhibit”. For the same compound, the “peptide neuroprotection with opioid receptor antagonists” value (“peptide neuroprotection” below) (SH-SY5Y cells [2]) was “did not abolish”.
Compound `CC(C)C[C@H](NC(=O)[C@@H]1CCCN(C(=O)[C@@H](N)Cc2ccc(O)cc2)C1)C(=O)N[C@@H](CC(=O)O)C(=O)N[C@@H](CC(C)C)C(=O)N[C@@H](Cc1ccccc1)C(=O)O` [analog 2, Tyr-(R)-Nip-Leu-Asp-Leu-Phe-OH] (H-Y[Nip(3R)]LDLF-OH) has a Ki (µ-opioid receptor) greater than 1000 nM, a Ki (κ-opioid receptor) greater than 1000 nM and a Ki (δ-opioid receptor) greater than 1000 nM.
`CC(C)C[C@H](NC(=O)C1CCN(C(=O)[C@@H](N)Cc2ccc(O)cc2)CC1)C(=O)N[C@@H](CC(=O)O)C(=O)N[C@@H](CC(C)C)C(=O)N[C@@H](Cc1ccccc1)C(=O)O` [analog 3, Tyr-Inp-Leu-Asp-Leu-Phe-OH] (H-Y[Inp]LDLF-OH) was tested, and the “decrease of ROS production stimulated by 6-OHDA” value (SH-SY5Y cells [1]; 6 h) was “about 60%”, the Ki (µ-opioid receptor) was greater than 1000 nM and the Ki (κ-opioid receptor) was greater than 1000 nM. For the same compound, the Ki (δ-opioid receptor) was 734 ± 31.3 nM, the “neuroprotection after pre-treatment” value (SH-SY5Y cells [2]) was “significantly weakened” and the “neuroprotective effect” value (SH-SY5Y cells [2]) was “didn’t inhibit”. The “peptide neuroprotection” value (SH-SY5Y cells [2]) was “did not abolish” and the “decrease of membrane lipids' oxidation” value [3] was roughly 10%.
`Cc1cc(O)cc(C)c1C[C@H](N)C(=O)N1CCC[C@@H](C(=O)N[C@@H](CC(C)C)C(=O)N[C@@H](CC(=O)O)C(=O)N[C@@H](CC(C)C)C(=O)N[C@@H](Cc2ccccc2)C(=O)O)C1` [analog 4, Dmt-(R)-Nip-Leu-Asp-Leu-Phe-OH] (H-[Dmt][Nip(3R)]LDLF-OH) showed a Ki (µ-opioid receptor) greater than 1000 nM, a Ki (κ-opioid receptor) greater than 1000 nM and a Ki (δ-opioid receptor) greater than 1000 nM.
`Cc1cc(O)cc(C)c1C[C@H](N)C(=O)N1CCC(C(=O)N[C@@H](CC(C)C)C(=O)N[C@@H](CC(=O)O)C(=O)N[C@@H](CC(C)C)C(=O)N[C@@H](Cc2ccccc2)C(=O)O)CC1` [analog 5, Dmt-Inp-Leu-Asp-Leu-Phe-OH] (H-[Dmt][Inp]LDLF-OH) was tested, and the “decrease of ROS production stimulated by 6-OHDA” value (SH-SY5Y cells [1]; 6 h) was “about 60%”, the Ki (µ-opioid receptor) was 712 ± 101 nM and the Ki (κ-opioid receptor) was greater than 1000 nM. The Ki (δ-opioid receptor) was 13.1 ± 3.08 nM, the “neuroprotection after pre-treatment” value (SH-SY5Y cells [2]) was “significantly weakened” and the “neuroprotective effect” value (SH-SY5Y cells [2]) was “didn’t inhibit”. For the same compound, the “peptide neuroprotection” value (SH-SY5Y cells [2]) was “some slight µ- and δ-opioid receptor antagonist effect is evident”, the inhibition of peroxidation ([3]; 0.1 µM) was “most significant inhibition” and the “decrease of membrane lipids' oxidation” value [3] was roughly 10%.
In the case of `CC(C)C[C@H](NC(=O)C1CCN(C(=O)[C@@H](N)Cc2ccc(O)cc2)CC1)C(=O)N[C@@H](CC(=O)O)C(=O)N[C@@H](CC(C)C)C(=O)N[C@@H](Cc1ccccc1)C(N)=O` [analog 7, Tyr-Inp-Leu-Asp-Leu-Phe-NH2] (H-Y[Inp]LDLF-NH2), the “decrease of ROS production stimulated by 6-OHDA” value (SH-SY5Y cells [1]; 6 h) is reported as “about 60%”, the Ki (µ-opioid receptor) is reported as greater than 1000 nM and the Ki (κ-opioid receptor) is reported as greater than 1000 nM. For the same compound, the Ki (δ-opioid receptor) was 773 ± 137 nM, the “neuroprotection after pre-treatment” value (SH-SY5Y cells [2]) was “significantly weakened” and the “neuroprotective effect” value (SH-SY5Y cells [2]) was “didn’t inhibit”. For the same compound, the “peptide neuroprotection” value (SH-SY5Y cells [2]) was “did not abolish” and the “decrease of membrane lipids' oxidation” value [3] was roughly 10%.
With YPLDLF [R-6, rubiscolin-6] the “decrease of intracellular ROS levels stimulated by 6-OHDA” value (SH-SY5Y cells [1]; peptide 0.1 µM, 6 h) was “about 70%”, the Ki (µ-opioid receptor) was greater than 1000 nM and the Ki (κ-opioid receptor) was greater than 1000 nM. For the same compound, the Ki (δ-opioid receptor) was 11.5 ± 2.25 nM and the “effect on lipid peroxidation” value ([3]; 0.1-10 µM) was “no effect”.
For “YPLDLF-NH2 [analog 6, Tyr-Pro-Leu-Asp-Leu-Phe-NH2]”, the Ki (µ-opioid receptor) was greater than 1000 nM, the Ki (κ-opioid receptor) was greater than 1000 nM and the Ki (δ-opioid receptor) was greater than 1000 nM.
